Results on one molecule are retold here after patent US6310093A (priority 1998, dated 2001).

The subject of assay [1] is glial cultures (astrocytes). Nature of the assay: Glutamate production in intact glial cultures with added glutamine. It is filed as cell-based, mouse (Swiss Webster). As for the experimental part: The glutamate concentration of glial cultures was maintained below 1 μM when cells were maintained in the absence or presence of 2 mM added glutamine or when subjected to hypoxic conditions (see below). The medium glutamate concentration remained unchanged between 7 and 24 h after medium change and was 0.14±0.04 μM and 0.36±0.06μM in medium containing 0.15 mM or 2.0 mM glutamine, respectively. Based on these steady state concentrations and the measured rate of glutamate uptake, the rates of glutamate production in the absence and presence of added glutamine were calculated to be 0.012 μM/min (4.8 pmol/min) and 0.030 μM/min (12 pmol/min), respectively. Thus, the calculated rates of glutamate production by glial cultures are only slightly affected by the addition of glutamine and are similar to those observed in intact neurons cultured in the absence of added glutamine.
Pre-column derivatization with o-phthalaldehyde (OPA, Sigma) and separation by reversed phase HPLC was used. A Gilson HPLC was fitted with a Hewlett-Packard model 1046A fluorimetric detector (excitation 340 nm, emission 420 nm). Medium was collected from cell culture at various times, and frozen at -80° C., prior to dilution of 5 or 10 μl into auto-sampler vials containing 40 or 45 μl dimethylformamide:water 1:3 (derivatives with 2-mercaptoethanol) or 1:9 (derivatives with N-acetyl-L-cysteine). […]
(§1) In cultures where glutamate concentrations are (within error) constant, d[Glu]/dt is close to zero, and cellular production of medium glutamate is balanced by its removal, such that glutamate production can be calculated from the steady state equation: […]
(§2) Calculations were performed using the slopes of the regression lines which describe the rate constants for glutamate removal and the mean values for culture medium glutamate concentrations. […] For comparative purposes, glutamate production rates can be expressed as pmol of glutamate produced per min in each culture. […]

Assay [2] deals with mixed glial-neuronal cultures. Nature of the assay: Glutamate production in intact mixed glial-neuronal cultures with added glutamine. It is filed as cell-based, mouse (Swiss Webster). Here is the method: Added glutamate (15 μM) was rapidly cleared from the medium of the mixed glial-neuronal cultures (FIG. 1). The uptake again fit to a first order process and occurred with a rate constant of 0.072 min^-1. […] When the intact mixed cultures were maintained in the absence or presence of added 2 mM glutamine, they also maintained steady state concentrations of glutamate below 1 μM (0.37±0.06 μM and 0.83±0.47 μM respectively). Thus, from the steady state equation, the rates of glutamate production were estimated to be 0.027 μM/min (11 pmol/min) in the absence of added glutamine and 0.060 μM/min (24 pmol/min) in the presence of 2 mM glutamine.
Measurements of glutamate and glutamine concentrations, as well as of the release of the cytoplasmic marker enzyme, lactate dehydrogenase (LDH), were made with the medium of mixed neuronal-astrocyte cultures exposed to hypoxic and control conditions, with and without the addition of 2 mM glutamine. For comparative purposes, the measurements were made in mixed cultures in which complete neuronal death was caused by a 5h exposure to 500 μM NMDA. The first glutamate measurement was made at the end of hypoxia (5h with mixed cultures, 7h with astrocytes), and the second at 19 h after the subsequent return of oxygen. If added, glutamine was present during and after hypoxia. LDH released by the experimental treatment was measured at 24 h, and is expressed as a percentage of the total cellular content (neurons in mixed cultures, and glia in glial cultures). To verify the neuronal origin of LDH and glutamate, similar experiments were performed on cultures that only contained glia.
Pre-column derivatization with o-phthalaldehyde (OPA, Sigma) and separation by reversed phase HPLC was used. A Gilson HPLC was fitted with a Hewlett-Packard model 1046A fluorimetric detector (excitation 340 nm, emission 420 nm). Medium was collected from cell culture at various times, and frozen at -80° C., prior to dilution of 5 or 10 μl into auto-sampler vials containing 40 or 45 μl dimethylformamide:water 1:3 (derivatives with 2-mercaptoethanol) or 1:9 (derivatives with N-acetyl-L-cysteine). For analysis of the derivatives formed with 2-mercaptoethanol, samples were reacted according to published methods (Newcomb, R. (1989) LC GC 7, 570-578; Lindroth, P., and Mopper. K., (1979) Anal. Chem. 51, 1667-1674.), and a gradient of 0-40% methanol in 1.25 mM sodium phosphate pH 6.2 over 20 min was used to elute the derivatives from a 4.5×250 mm Beckman Ultrasphere octadecylsilica column (dp 5 μm) at 1 ml/min. For analysis of the derivatives formed with N-acetyl-L-cysteine (Bruckner), samples were reacted with 25 μl of 1 mg/ml OPA, and 50 μl of 1 mg/ml N-acetyl-L-cysteine (Fluka) in 0.5 M potassium borate pH 10.0. […]
as §1, §2

Assay [3] deals with ischemic penumbra (dialysate glutamate). Nature of the assay: In vivo microdialysis of ischemic penumbra after MCAO. The following applies: 10 mM glutamine plus 20 mM sodium phosphate, 1 h; ±115%. Also noted: species or system rat. As for the experimental part:
In further microdialysis experiments, exogenous glutamine was added to the ischemic penumbra via the probe, and dialysis glutamate was measured, as described in Example 7. When 10 mM glutamine plus 20 mM sodium phosphate were perfused into the penumbra for one hour, dialysate glutamate was elevated 315% as compared to control (±115%). […] The effects on glutamate were much more pronounced than on other amino acids measured; therefore, these studies provided further support for the involvement of extracellular glutaminase activity in producing the elevated levels of glutamate in cortical tissue undergoing ischemic damage.
The middle cerebral arteries of rats were occluded as in EXAMPLE 7, and the rats were returned to their cages overnight. The next morning, dialysis probes ([…], 2 mm length, 20,000 dalton cutoff) were inserted into ischemic penumbra (cortex) and perfused with artificial CSF at 3 μl/min for 1 h prior to collection of 10 minute fractions of dialysate. The effectiveness of the occlusion and the placement of probes were verified by TTC staining of 1 mm sections at the conclusion of the experiment. Amino acids in the dialysate were measured by reverse phase HPLC with fluorescence detection, after derivatization of the dialysates with o-phthaldialdehyde and N-acetyl-L-cysteine […]

The test system of assay [4] is mixed neuronal-astrocyte cultures.
The mark [5] stands for this setting: Table 2, glial-neuronal, 2 mM Gln.

“And” between values parts separate entries of the source, which are not always exact repeats. Equal values may be shown once.

Consider `NC(=O)CC[C@H](N)C(=O)O` [Gln, glutamine], for which the Glutamate concentration was 0.36 ± 0.06 in assay [1] (Table 2, glial, 2 mM Gln) and 0.83 ± 0.47 in assay [2] (setting [5]). Moreover, the “Glutamate production (S)” value was 0.03 in assay [1] (Table 2, glial, 2 mM Gln) and 0.06 in assay [2] (setting [5]). Further, the “glutamate production per culture” value in assay [1] (glial, 2 mM glutamine) is reported as 12 pmol/min; in assay [2] (mixed, 2 mM glutamine), 24 pmol/min. Further, the Glu in assay [2] (2 mM Gln, 5 h, mixed cultures, no hypoxia) was 0.83 ± 0.47 µM; in assay [4], 3.1 ± 0.28 and 3.88 ± 0.14. In addition, the cytotoxicity at 2000 µM in assay [2] (Mus musculus, 24 h, read-out: % cell death (LDH)) was 17.6%. The “dialysate glutamate elevation vs control” value in assay [3] is listed as 315%. The medium glutamate in assay [4] came out at 2.3 ± 1.1 μM Glu.
